The source of these data is ChEMBL document CHEMBL1143550, “A structural screening approach to ketoamide-based inhibitors of cathepsin K” (Bioorg Med Chem Lett, 2005).

For data set [1], the target named is T1, Cathepsin K (Homo sapiens, UniProt P43235).
T1 sequence (P43235 whole entry): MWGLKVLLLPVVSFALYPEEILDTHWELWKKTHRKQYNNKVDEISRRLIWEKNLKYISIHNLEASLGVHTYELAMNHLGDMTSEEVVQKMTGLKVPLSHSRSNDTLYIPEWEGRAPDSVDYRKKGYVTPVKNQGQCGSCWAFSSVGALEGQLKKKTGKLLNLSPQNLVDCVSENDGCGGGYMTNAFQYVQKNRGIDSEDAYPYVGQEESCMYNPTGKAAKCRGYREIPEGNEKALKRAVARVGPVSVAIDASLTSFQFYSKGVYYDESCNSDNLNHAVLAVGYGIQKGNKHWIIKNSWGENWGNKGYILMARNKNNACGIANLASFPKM
Description: Inhibitory concentration against human cathepsin K.

Data set [2] deals with Cathepsin B (Homo sapiens, UniProt P07858). Description: Inhibitory concentration against human cathepsin B by fluorescence assay using 10 uM Cbz-Phe-Arg-AMC.
Data set [3] has as its target Procathepsin L (Homo sapiens, UniProt P07711). Description: Inhibitory concentration against human cathepsin L by fluorescence assay using 5 uM Cbz-Phe-Arg-AMC.
For data set [4], the target named is T2, Cathepsin L2 (Homo sapiens, UniProt O60911).
T2 sequence (O60911 whole entry): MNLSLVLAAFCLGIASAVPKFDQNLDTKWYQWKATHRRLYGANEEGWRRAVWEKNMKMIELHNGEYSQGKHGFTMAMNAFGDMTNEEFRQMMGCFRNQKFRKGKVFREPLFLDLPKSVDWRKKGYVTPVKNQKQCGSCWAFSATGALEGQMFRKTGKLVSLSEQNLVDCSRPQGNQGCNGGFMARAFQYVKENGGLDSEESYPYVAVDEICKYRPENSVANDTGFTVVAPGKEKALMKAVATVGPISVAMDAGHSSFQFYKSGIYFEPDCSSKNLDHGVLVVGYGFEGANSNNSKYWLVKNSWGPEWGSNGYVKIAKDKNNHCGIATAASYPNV
The data set can be described thus: Inhibitory concentration against human cathepsin V by fluorescence assay using 2 uM Cbz-Phe-Arg-AMC.

Data set [5] addresses Cathepsin S (Homo sapiens, UniProt P25774). Description: Inhibitory concentration against human cathepsin S by fluorescence assay using 10 uM Cbz-Val-Val-Arg-AMC.
Data set [6] concerns the target T3, Pro-cathepsin H (Homo sapiens, UniProt P09668).
T3 sequence (P09668 whole entry): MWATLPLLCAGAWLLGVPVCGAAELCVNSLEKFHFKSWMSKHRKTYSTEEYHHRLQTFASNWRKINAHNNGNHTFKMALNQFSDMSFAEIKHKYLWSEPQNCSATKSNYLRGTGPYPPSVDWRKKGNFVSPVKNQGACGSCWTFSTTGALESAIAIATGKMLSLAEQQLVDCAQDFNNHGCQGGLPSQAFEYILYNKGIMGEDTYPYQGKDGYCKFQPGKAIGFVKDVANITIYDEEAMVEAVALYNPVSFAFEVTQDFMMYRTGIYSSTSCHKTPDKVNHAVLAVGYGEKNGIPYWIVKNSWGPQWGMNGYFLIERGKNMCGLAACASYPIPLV
The data set can be described thus: Inhibitory concentration against human cathepsin H by fluorescence assay using 50 uM L-Arg-b-naphthalamide.

Data set [7] in a line: Total clearance after intravenous administration of […] mg/kg in rats was determined. Type of data set: ADME, organism-based. As to conditions: rat, in vivo, 2.5 mg/kg, read-out: C1.
Data set [8] in a line: solubility in fasted state stimulated intestinal fluid (pH6.8). In kind it is ADME. The following applies: rat, fasted state simulated intestinal fluid, pH 6.8.
Data set [9] is described as follows: Half-life after intravenous administration of […] mg/kg in rats was determined. As to conditions: rat, in vivo, 2.5 mg/kg. Type of data set: ADME, organism-based.
Data set [10] in a line: Steady state volume of distribution after intravenous administration of 2.5 mg/kg in rats was determined. As to conditions: rat, in vivo, read-out: Vss. More on the design: dose 2.5 mg/kg, route intravenous. Type of data set: ADME, organism-based.
Data set [11] in a line: Oral bioavailability in rat (dose 5 mg/kg p.o.). As to conditions: in vivo.
Data set [12] is described as follows: Equilibrium solubility in fasted state-simulated intestinal fluid at pH 6.8 was determined. Type of data set: ADME.

≈ marks a conversion by molar mass, not a printed value.

Chain of Cathepsin S (P25774 whole entry): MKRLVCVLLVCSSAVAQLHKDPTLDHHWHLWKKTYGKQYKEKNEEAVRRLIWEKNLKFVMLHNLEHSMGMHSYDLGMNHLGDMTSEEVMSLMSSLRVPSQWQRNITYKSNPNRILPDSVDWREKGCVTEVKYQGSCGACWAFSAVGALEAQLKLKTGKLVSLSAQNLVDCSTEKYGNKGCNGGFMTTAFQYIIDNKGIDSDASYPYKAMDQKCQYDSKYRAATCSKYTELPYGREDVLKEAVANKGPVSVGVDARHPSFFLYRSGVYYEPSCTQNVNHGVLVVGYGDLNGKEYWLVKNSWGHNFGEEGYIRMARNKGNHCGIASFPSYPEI
Chain of Procathepsin L (P07711 whole entry): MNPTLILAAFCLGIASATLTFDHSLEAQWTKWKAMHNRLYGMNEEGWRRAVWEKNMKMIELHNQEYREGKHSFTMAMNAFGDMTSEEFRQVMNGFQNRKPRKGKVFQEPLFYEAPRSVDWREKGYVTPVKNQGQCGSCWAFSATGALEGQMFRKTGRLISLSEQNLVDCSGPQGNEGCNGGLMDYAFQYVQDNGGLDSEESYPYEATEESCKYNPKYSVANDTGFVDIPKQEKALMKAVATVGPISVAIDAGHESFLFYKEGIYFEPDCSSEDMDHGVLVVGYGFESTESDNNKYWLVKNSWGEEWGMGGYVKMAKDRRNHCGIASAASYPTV

Broadly, the IC50 is the concentration that gives 50% inhibition. Consider `CCCC[C@H](NC(=O)OC1CC2CCC1C2)C(=O)C(=O)N[C@H](C)c1ccccc1` (some centres undefined), for which the IC50 was 26 nM in [1]; more than 13000 nM in data set [2]; 1000 nM in [3]; 190 nM in data set [4]; 19 nM in data set [5]; more than 13000 nM in data set [6].
Regarding `CCCC[C@H](NC(=O)O[C@@H]1C[C@H](C)C[C@H](C)C1)C(=O)C(=O)N[C@H](C)c1ccccc1`, the IC50 in data set [1] was 350 nM; in data set [2], more than 13000 nM; in [3], 4400 nM; in data set [4], 2800 nM; in [5], 63 nM; in data set [6], more than 13000 nM.
For the compound `CCCC[C@H](NC(=O)O[C@H]1CCc2ccccc21)C(=O)C(=O)N[C@H](C)c1ccccc1`, the IC50 was 100 nM in [1]; more than 13000 nM in data set [2]; 460 nM in [3]; 290 nM in data set [4]; 280 nM in data set [5]; more than 13000 nM in [6].
By solubility is commonly meant the dissolved amount per volume that the medium holds. A word on the half-life: it is how long it takes for the measured level to halve. A high value points to slow decline. For orientation: bioavailability means the share of a dose that reaches the circulation, judged against a reference dose that is usually intravenous. On to `CCCC[C@H](NC(=O)O[C@@H]1C(=O)OCC1(C)C)C(=O)C(=O)N[C@H](C)c1ccccc1`, for which the clearance in data set [7] was determined as 460 mL/min/kg. Moreover, the IC50 in data set [1] was 3 nM; in data set [2] it was more than 500 nM; in data set [3] it was 410 nM; in data set [4], 79 nM; in data set [5], 13 nM; in [6] it was more than 500 nM. Besides, the solubility in [8] is 240 µg/mL (≈ 573 µM). Further, the half-life in data set [9] was found to be 11 min. Also, the Vd in data set [10] was found to be 3.4 L/kg. The compound further displayed a bioavailability in data set [11] of 0%.
Turning to `CCCC[C@H](NC(=O)OC1C2(C)CCC(C2)C1(C)C)C(=O)C(=O)N[C@H](C)c1ccccc1` (some centres undefined), the half-maximal inhibitory concentration (IC50) in [1] is 5.7 nM; in data set [2], 12000 nM; in [3], 1700 nM; in [4] it was 180 nM; in data set [5], 30 nM; in [6], more than 13000 nM.
The term thermodynamic solubility denotes solubility found after equilibrating the solid with the medium. Take `CCCC[C@H](NC(=O)O[C@@H]1C(=O)NCC1(C)C)C(=O)C(=O)N[C@H](C)c1ccccc1`: the clearance in data set [7] was 48 mL/min/kg. The half-inhibitory concentration (IC50) was 2.5 nM in [1]; 1400 nM in data set [2]; 150 nM in data set [3]; 29 nM in data set [4]; 18 nM in data set [5]; more than 13000 nM in [6]. In addition, the solubility (thermodynamic) in data set [12] was 800 µg/mL (≈ 1920 µM). The same compound returned a half-life in data set [9] of 62 min. Besides, in [10], the Vd was 1.3 L/kg. The compound further registered a bioavailability in data set [11] of 25%.
As for `CCCC[C@H](NC(=O)O[C@H]1CCCc2ccccc21)C(=O)C(=O)N[C@H](C)c1ccccc1`, the IC50 in data set [1] was 32 nM; in [2], more than 2000 nM; in data set [3], 660 nM; in data set [4] it was 340 nM; in data set [5], 79 nM; in data set [6], more than 2000 nM.
For `CCCC[C@H](NC(=O)OC1C2CC3CC(C2)CC1C3)C(=O)C(=O)N[C@H](C)c1ccccc1` (some centres undefined), the IC50 in [1] is 7.2 nM; in data set [2], more than 5000 nM; in data set [3], 2600 nM; in data set [4], 390 nM; in data set [5], 16 nM; in data set [6], more than 5000 nM.
With `CCCC[C@H](NC(=O)OC1C[C@H](C)C[C@@H](C)C1)C(=O)C(=O)N[C@H](C)c1ccccc1` (some centres undefined), the IC50 is 190 nM in data set [1]; more than 13000 nM in data set [2]; 6800 nM in [3]; 2000 nM in data set [4]; 290 nM in [5]; more than 13000 nM in [6].
